# Laboratory results: ChEMBL document CHEMBL5543086, “Discovery of novel NSAID hybrids as cPLA2/COX-2 dual inhibitors alleviating rheumatoid arthritis via inhibiting p38 MAPK pathway” (Eur J Med Chem, 2024)
# pIC50: −log10 of the molar value. Active and inactive are the calls of the source. No cut-off for these calls is given here.
# Key:
# [1] = system: RAW264.7; assay: Cytotoxicity against LPS-induced mouse RAW264.7 cells assessed as reduction in cell viability at 30 uM pretreated for 1 hr followed by LPS addition and measured after 24 hrs by MTT assay; assay type: toxicity, cell-based; details: raw264.7, 25 h
# [2] = system: RAW264.7; assay: Antiinflammatory activity in LPS-induced mouse RAW264.7 cells assessed as inhibition of NO production pretreated for 1 hr followed by LPS stimulation and measured after 24 hrs by griess reagent based assay; assay type: functional, cell-based
# [3] = Toxicity in male Wistar rat assessed as gastrointestinal damage by measuring ulcer index at 50 mg/kg administered by gavage and measured after 6 hrs; assay type: organism-based; details: in vivo, po
# [4] = system: Rattus norvegicus; assay: Antiarthritic activity in Freund's complete adjuvant induced Lewis rat model of arthritis assessed as reduction in PGE2 level in serum at 20 mg/kg, po administered every 24 hrs for 28 days post immunization starting from day 8 post immunization by ELISA; assay type: functional, organism-based; details: time 21.0 day
# [5] = Toxicity in male Wistar rat assessed as gastrointestinal damage by measuring level-2 ulcers with 1 to 3 mm area at 50 mg/kg administered by gavage and measured after 6 hrs; assay type: organism-based; details: in vivo, po
# [6] = system: Rattus norvegicus; assay: Antiarthritic activity in Freund's complete adjuvant induced Lewis rat model of arthritis assessed as reduction in IL-6 level in serum at 20 mg/kg, po administered every 24 hrs for 28 days post immunization starting from day 8 post immunization by ELISA; assay type: functional, organism-based; details: time 21.0 day
# [7] = system: Rattus norvegicus; assay: (§1) Immunomodulatory activity in Freund's complete adjuvant induced Lewis rat model of arthritis assessed as increase in anti-IL-10 antibody expression in knee joint slices at 20 mg/kg, po administered every 24 hrs for 28 days post immunization starting from day 8 post immunization by immunohistochemistry analysis; assay type: functional, organism-based; details: time 21.0 day
# [8] = system: Rattus norvegicus; assay: Immunomodulatory activity in Freund's complete adjuvant induced Lewis rat model of arthritis assessed as increase in IL-10 level in serum at 20 mg/kg, po administered every 24 hrs for 28 days post immunization starting from day 8 post immunization by ELISA; assay type: functional, organism-based; details: time 21.0 day
# [9] = Toxicity in male Wistar rat assessed as gastrointestinal damage by measuring level-3 ulcers with >3 mm area at 50 mg/kg administered by gavage and measured after 6 hrs; assay type: organism-based; details: in vivo, po
# [10] = Toxicity in male Wistar rat assessed as gastrointestinal damage by measuring number of ulcers at 50 mg/kg administered by gavage and measured after 6 hrs (reference value: 0); assay type: organism-based; details: in vivo, po
# [11] = Toxicity in male Wistar rat assessed as gastrointestinal damage by measuring level-1 ulcers with <1 mm area at 50 mg/kg administered by gavage and measured after 6 hrs; assay type: organism-based; details: in vivo, po
# [12] = system: Rattus norvegicus; assay: Immunomodulatory activity in Freund's complete adjuvant induced Lewis rat model of arthritis assessed as reduction in IL-17 level in serum at 20 mg/kg, po administered every 24 hrs for 28 days post immunization starting from day 8 post immunization by ELISA; assay type: functional, organism-based; details: time 21.0 day
# [13] = system: Rattus norvegicus; assay: as §1, with “decrease” for “increase”, “anti-IL-17” for “anti-IL-10”; assay type: functional, organism-based; details: time 21.0 day
# [14] = system: Rattus norvegicus; assay: Antiarthritic activity in Freund's complete adjuvant induced Lewis rat model of arthritis assessed as reduction in TNFalpha level in serum at 20 mg/kg, po administered every 24 hrs for 28 days post immunization starting from day 8 post immunization by ELISA; assay type: functional, organism-based; details: time 21.0 day
Compound,Activity [1],other results
CCCCCC/C=C(/OC(=O)C(C)c1ccc(CC(C)C)cc1)C(F)(F)F (stereo not drawn),Non-Toxic,–
CCCCCCCCCCCCCCCCCC/C=C(/OC(=O)[C@@H](C)c1ccc2cc(OC)ccc2c1)C(F)(F)F,Non-Toxic,–
CCCCCCCCCCCCCCCCCC/C=C(/OC(=O)c1ccccc1OC(C)=O)C(F)(F)F,Non-Toxic,–
CCCCC/C=C\C/C=C\CCCCCC/C=C(/OC(=O)C(C)c1ccc(C(=O)c2ccccc2)cc1)C(F)(F)F (stereo not drawn),Non-Toxic,–
CCCCCCC/C=C(/OC(=O)C(C)c1ccc(-c2ccccc2)c(F)c1)C(F)(F)F (stereo not drawn),Non-Toxic,–
CCCCCCCCCCCC/C=C(/OC(=O)C(C)c1ccc(CC(C)C)cc1)C(F)(F)F (stereo not drawn),Non-Toxic,–
CCCCCCCCCCCCCCCCCCCC/C=C(/OC(=O)c1ccccc1OC(C)=O)C(F)(F)F,Non-Toxic,–
CCCCCCCC/C=C\CCCCCCCCCC/C=C(/OC(=O)[C@@H](C)c1ccc2cc(OC)ccc2c1)C(F)(F)F,Non-Toxic,–
CCCCCCCCCCCCCCCCCCCC/C=C(/OC(=O)[C@@H](C)c1ccc2cc(OC)ccc2c1)C(F)(F)F,Non-Toxic,–
CCCCC/C=C\C/C=C\C/C=C\C/C=C\CC/C=C(/OC(=O)C(C)c1ccc(-c2ccccc2)c(F)c1)C(F)(F)F (stereo not drawn),Non-Toxic,pIC50 [2]: 5.15
CCCCCCCCCC/C=C(/OC(=O)C(C)c1ccc(-c2ccccc2)c(F)c1)C(F)(F)F (stereo not drawn),Non-Toxic,–
CCCCCCCC/C=C(/OC(=O)c1ccccc1OC(C)=O)C(F)(F)F,Non-Toxic,–
CCCCCCCC/C=C\CCCCCCCCCC/C=C(/OC(=O)c1ccccc1OC(C)=O)C(F)(F)F,Non-Toxic,–
CCCCCCCC/C=C(/OC(=O)C(C)c1ccc(CC(C)C)cc1)C(F)(F)F (stereo not drawn),Non-Toxic,–
CCCCCCCCCCCCCCCC/C=C(/OC(=O)C(C)c1ccc(CC(C)C)cc1)C(F)(F)F (stereo not drawn),Non-Toxic,–
CCCCCCCCCCCCCCCCCC/C=C(/OC(=O)C(C)c1ccc(CC(C)C)cc1)C(F)(F)F (stereo not drawn),Non-Toxic,–
CCCCCCCC/C=C\CCCCCC/C=C(/OC(=O)C(C)c1ccc(-c2ccccc2)c(F)c1)C(F)(F)F (stereo not drawn),Non-Toxic,–
CCCCCCCCCCCCCCC/C=C(/OC(=O)C(C)c1ccc(CC(C)C)cc1)C(F)(F)F (stereo not drawn),Non-Toxic,–
CCCCCCCCCCCCCCCCCCCC/C=C(/OC(=O)C(C)c1ccc(CC(C)C)cc1)C(F)(F)F (stereo not drawn),Non-Toxic,–
CCCCCCCC/C=C\CCCCCCCCCC/C=C(/OC(=O)C(C)c1ccc(CC(C)C)cc1)C(F)(F)F (stereo not drawn),Non-Toxic,–
CCCCCCCCCC/C=C(/OC(=O)[C@@H](C)c1ccc2cc(OC)ccc2c1)C(F)(F)F,Non-Toxic,–

Compound,Activity [1],other results
CCCCC/C=C\C/C=C\C/C=C\C/C=C\CC/C=C(/OC(=O)C(C)c1ccc(CC(C)C)cc1)C(F)(F)F (stereo not drawn),Non-Toxic,pIC50 [2]: 5.32
CCCCC/C=C\C/C=C\C/C=C\C/C=C\CCCC(=O)C(F)(F)F [ARACHIDONYL TRIFLUOROMETHYLKETONE],Non-Toxic,–
C=CCCCCCCC/C=C(/OC(=O)[C@@H](C)c1ccc2cc(OC)ccc2c1)C(F)(F)F,Non-Toxic,–
CCCCC/C=C\C/C=C\C/C=C\C/C=C\CC/C=C(/OC(=O)[C@@H](C)c1ccc2cc(OC)ccc2c1)C(F)(F)F,Non-Toxic,pIC50 [2]: 5.18
CCCCCCCC/C=C(/OC(=O)[C@@H](C)c1ccc2cc(OC)ccc2c1)C(F)(F)F,Non-Toxic,–
C=CCCCCCCC/C=C(/OC(=O)C(C)c1ccc(-c2ccccc2)c(F)c1)C(F)(F)F (stereo not drawn),Non-Toxic,–
CCCCCCCCCCCC/C=C(/OC(=O)[C@@H](C)c1ccc2cc(OC)ccc2c1)C(F)(F)F,Non-Toxic,–
CCCCC/C=C\C/C=C\CCCCCC/C=C(/OC(=O)[C@@H](C)c1ccc2cc(OC)ccc2c1)C(F)(F)F,Non-Toxic,–
CCCCCCCCCCCCCCCC/C=C(/OC(=O)[C@@H](C)c1ccc2cc(OC)ccc2c1)C(F)(F)F,Non-Toxic,–
CCCCCCCCCCCCCC/C=C(/OC(=O)C(C)c1ccc(CC(C)C)cc1)C(F)(F)F (stereo not drawn),Non-Toxic,–
CCCCCCCCCCCCCCCC/C=C(/OC(=O)c1ccccc1OC(C)=O)C(F)(F)F,Non-Toxic,–
CCCCCCCCCCCCCCCC/C=C(/OC(=O)C(C)c1ccc(-c2ccccc2)c(F)c1)C(F)(F)F (stereo not drawn),Non-Toxic,–
CCCCCCCCCC/C=C(/OC(=O)c1ccccc1OC(C)=O)C(F)(F)F,Non-Toxic,–
CCC/C=C(/OC(=O)C(C)c1ccc(CC(C)C)cc1)C(F)(F)F (stereo not drawn),Non-Toxic,–
CCCCCCCCCCCCCC/C=C(/OC(=O)c1ccccc1OC(C)=O)C(F)(F)F,Non-Toxic,–
CCCCCCCC/C=C\CCCCCC/C=C(/OC(=O)[C@@H](C)c1ccc2cc(OC)ccc2c1)C(F)(F)F,Non-Toxic,–
CCCCC/C=C\C/C=C\C/C=C\C/C=C\CC/C=C(/OC(=O)Cc1c(C)n(C(=O)c2ccc(Cl)cc2)c2ccc(OC)cc12)C(F)(F)F,Non-Toxic,–
CCCCC/C=C\C/C=C\CCCCCC/C=C(/OC(=O)c1ccccc1OC(C)=O)C(F)(F)F,Non-Toxic,–
CCCCCCCCCCCCCCCCC/C=C(/OC(=O)C(C)c1ccc(CC(C)C)cc1)C(F)(F)F (stereo not drawn),Non-Toxic,–
CCCCCCCCCCCC/C=C(/OC(=O)c1ccccc1OC(C)=O)C(F)(F)F,Non-Toxic,–
CCCCCCCC/C=C(/OC(=O)C(C)c1ccc(-c2ccccc2)c(F)c1)C(F)(F)F (stereo not drawn),Non-Toxic,–

Compound,Activity [1],other results
CCCCCC/C=C(/OC(=O)c1ccccc1OC(C)=O)C(F)(F)F,Non-Toxic,–
CCCCCCCC/C=C\CCCCCC/C=C(/OC(=O)c1ccccc1OC(C)=O)C(F)(F)F,Non-Toxic,–
CC(C(=O)O)c1cccc(C(=O)c2ccccc2)c1 (stereo not drawn) [KETOPROFEN],Non-Toxic,UI [3]: 40; Activity [4]: Active; Activity [5]: 30%; Activity [6]: Active; Activity [7]: Active; Activity [8]: Active; Activity [9]: 4%; Activity [10]: 23; pIC50 [2]: 5.15; Activity [11]: 65%; Activity [12]: Active; Activity [13]: Active; Activity [14]: Active
CCCCC/C=C\C/C=C\CCCCCC/C=C(/OC(=O)C(C)c1ccc(CC(C)C)cc1)C(F)(F)F (stereo not drawn),Non-Toxic,–
CCCCCCCCCCCCCC/C=C(/OC(=O)[C@@H](C)c1ccc2cc(OC)ccc2c1)C(F)(F)F,Non-Toxic,–
CCCCCCC/C=C(/OC(=O)C(C)c1ccc(CC(C)C)cc1)C(F)(F)F (stereo not drawn),Non-Toxic,–
CCCCCCCC/C=C\CCCCCC/C=C(/OC(=O)C(C)c1ccc(CC(C)C)cc1)C(F)(F)F (stereo not drawn),Non-Toxic,–
CCCCCCC/C=C(/OC(=O)[C@@H](C)c1ccc2cc(OC)ccc2c1)C(F)(F)F,Non-Toxic,–
CCCCCCCCCCCCCC/C=C(/OC(=O)C(C)c1ccc(-c2ccccc2)c(F)c1)C(F)(F)F (stereo not drawn),Non-Toxic,–
CCCCCCCCCCCCCCCCCCCC/C=C(/OC(=O)C(C)c1ccc(-c2ccccc2)c(F)c1)C(F)(F)F (stereo not drawn),Non-Toxic,–
CCCCCCCCCC/C=C(/OC(=O)C(C)c1ccc(CC(C)C)cc1)C(F)(F)F (stereo not drawn),Non-Toxic,–
CCCCC/C=C\C/C=C\CCCCCC/C=C(/OC(=O)C(C)c1ccc(-c2ccccc2)c(F)c1)C(F)(F)F (stereo not drawn),Non-Toxic,–
CCCCCCC/C=C(/OC(=O)c1ccccc1OC(C)=O)C(F)(F)F,Non-Toxic,–
CCCCCCCCCCCCC/C=C(/OC(=O)C(C)c1ccc(CC(C)C)cc1)C(F)(F)F (stereo not drawn),Non-Toxic,–
CCCCCCCCCCCCCCCCCC/C=C(/OC(=O)C(C)c1ccc(-c2ccccc2)c(C)c1)C(F)(F)F (stereo not drawn),Non-Toxic,–
CCCC/C=C(/OC(=O)C(C)c1ccc(CC(C)C)cc1)C(F)(F)F (stereo not drawn),Non-Toxic,–
CCCCC/C=C\C/C=C\C/C=C\C/C=C\CC/C=C(/OC(=O)c1ccccc1OC(C)=O)C(F)(F)F,Non-Toxic,–
CCCCCCCCCC/C=C(/OC(=O)C(C)c1ccc(C(=O)c2ccccc2)cc1)C(F)(F)F (stereo not drawn),Non-Toxic,–
CCCCCCCC/C=C\CCCCCCCCCC/C=C(/OC(=O)C(C)c1ccc(-c2ccccc2)c(F)c1)C(F)(F)F (stereo not drawn),Non-Toxic,–
CCCCCCCCCCCCCCCCCC/C=C(/OC(=O)C(C)c1ccc(C(=O)c2ccccc2)cc1)C(F)(F)F (stereo not drawn),Non-Toxic,–
